From paper PMC7849180 (Frontiers in Pharmacology, 2020) come the findings set out here.

What is called IC50 is the point on the concentration scale where inhibition reaches its midpoint. As usually defined, the MRT is the average time that molecules of a dose stay in the body. A word on the Vss: it is the apparent volume that relates the amount in the body to the concentration in plasma or blood. A low value points to little distribution into tissue.

Data set [1] relates to Ba/F3-EpoR-JAK2V617F cells. Briefly: Cell activity of mutant Ba/F3-EpoR-JAK2V617F. The following applies: read-out: IC50, inhibition of cell activity. Type of data set: cell-based. An excerpt: Suzhou Zelgen Biopharmaceuticals Co., Ltd. Jaktinib Hydrochloride Tablets Chemical Drug Class 1 New Drug has been completed. The ongoing toxicity tests include a long-term 39-week toxicity test in Beagle dogs by oral administration, a reproductive toxicity test in rats during the teratogenic sensitive period, and a reproductive toxicity test in rabbits during the teratogenic sensitive period.
Preclinical Pharmacodynamic Study
Study on the in vitro Pharmacodynamic Effects of ZG0163 at the […]
In this study, the effects of ZG0163 was similar to those of positive control compounds, ZG0164 and ZG0178.
Study on the in vitro Pharmacodynamic Effects of ZG0163 at the Cellular Level (Ba/F3-EpoR-JAK2V617F cells)
JAK2V617F cell line, the compound ZG0163 was able to induce apoptosis of pathogenic cells and eliminate abnormal cell proliferation by inhibiting the JAK-STAT signaling pathway, thus achieving treatment efficacy in myeloproliferative neoplasms. […]
cell line, manifested as significant inhibition of phosphorylation of JAK2 and its downstream signaling proteins ERK and STAT5. The effects of ZG0163 was similar to those of positive control compounds, ZG0164 and ZG0178.
EpoR-JAK2V617F, which was similar to those of positive control compounds, ZG0164 […]
and ZG0178. However, the inhibitory effect on the activity of Ba/F3-EpoR cell line […]
respectively. […]

Data set [2] can be described thus: PK, single intravenous dose. The format is in vivo, rats. The following applies: 6.1 mg/kg ZG0128 iv. As for the experimental part:
Preclinical Pharmacokinetic Properties
Pharmacokinetic Study of Single Dose Intravenous Administration in […]
ZG0163 administered via intravenous injection had low plasma clearance in rats, […]
The Tmax of the metabolite
ZG0245 in rats was 1.0 h on average, and the plasma exposure (AUC0-t) was 15.0% of the original drug. The pharmacokinetic parameters obtained after the intravenous […]
Table 10. Pharmacokinetic parameters of ZG0163 in rats administered with 6.1 mg/kg of ZG0128 via intravenous injection. […]

Data set [3] is described as follows: PK, 7-day intragastric dosing. Type of data set: in vivo, beagles. The following applies: 122 mg/animal once daily. As to the method:
Suzhou Zelgen Biopharmaceuticals Co., Ltd. Jaktinib Hydrochloride Tablets Chemical Drug Class 1 New Drug higher than ZG0163, which was higher than the ratio of intravenous administration. […]
produced through first-pass metabolism. Within the dosage range of 61-244 mg, the AUC0-t of ZG0245 increased proportionally with the increasing dosage.
Pharmacokinetics of 7 consecutive days of multi-dose intragastric […]
After 7 consecutive days of intragastric administration (2 tablets once daily, equal […]
respectively, when compared to single-dose administration. The Cmax and AUC0-t of metabolite ZG0245 were 1.33 and 0.95 times compared to single-dose administration.
Thus, there was no significant accumulation of ZG0163 and metabolite ZG0245 after 7 days of consecutive administration. […]
intragastric administration of 61 mg ZG0163.
ZG0128, and the exposure was 93.0% of that of the medium dosage group (122 […]
of that of the medium dosage group (122 mg/animal).
Identification of Metabolites in Rat Samples
Using UPLC-UV/Q-TOF MS, potential metabolites were identified in rat plasma, urine, feces and bile, after single intragastric administration of 30.5 mg/kg ZG0128, as well as metabolites in mice plasma after single intragastric administration of 61 mg/kg ZG0128. […]

Values joined by “and” are separate entries in the source; they are usually repeats but may differ in a detail not shown here. Identical values can stand only once.

Turning to Jaktinib, the IC50 in data set [1] amounted to 500 nM. In data set [2] (Female), the AUC0-t was 26000 ng·h/mL, the “AUC0-∞” value came out at 26000 ng·h/mL, the CL was found to be 3.23 ± 0.38 mL/min/kg and the MRT turned out to be 2.11 h. For the same substance, in data set [2] (Female), the Vss turned out to be 0.407 ± 0.063 L/kg and the t1/2 worked out at 2.01 h. Also, in data set [2] (Male), the AUC0-t was 17700 ng·h/mL, the “AUC0-∞” value stood at 17700 ng·h/mL, the CL came to 4.92 ± 1.34 mL/min/kg and the MRT was 2.16 h. In data set [2] (Male), this substance had a Vss of 0.620 ± 0.120 L/kg and a t1/2 of 2.01 h. In data set [2] (Overall), the AUC0-t was determined as 21800 ng·h/mL, the “AUC0-∞” value is 21900 ng·h/mL, the MRT is recorded as 2.14 h and the t1/2 was 2.01 h. In data set [2] (Overall, listed as ZG0163), the CL is 4.07 mL/min/kg and 4.07 ± 1.28 mL/min/kg; the Vss is 0.514 L/kg and 0.514 ± 0.145 L/kg. Also, the “day on which steady state was reached” value in data set [3] was 5 days.
